A word on the viability: it is a read-out of living cells in per cent, often relative to untreated cells.

We go through 82 molecules from PMC12040169 (PLOS Biology, 2025).

SMILES strings stand for the structures.

The nature of the series: in vitro. The settings on record: human, hela cells, % viability.
With `O=C(Cn1ncc2cccn2c1=O)Nc1ccc(F)cc1` [CBK283672], the viability at 28.5 h, 10 µM was determined as 107%.
The same measure for `CCc1nn(CC(=O)N2CCC(C)CC2)c(=O)c2cc3occc3n12` [CBK283675]: 76.4%.
For the molecule `CCc1nn(CC(=O)N2CCCCC2C)c(=O)c2cc3occc3n12` (stereo not shown) [CBK283676], the viability at 28.5 h, 10 µM was determined as 67.5%.
The same measure for `c1coc(-c2nc3cnccn3c2NC2CCCC2)c1` [CBK283678]: 90.6%.
With `CC(C)n1cc(C(=O)N2CCCCC2c2nc3ccccc3[nH]2)cn1` (stereo not shown) [CBK283679], the viability at 28.5 h, 10 µM turned out to be 102%.
To `CC1CCCC(C)N1C(=O)Cn1ncc2cccn2c1=O` (stereo not shown) [CBK283680] belongs 101%; to `Fc1ccccc1-c1nc2cnccn2c1NCc1ccco1` [CBK283681], 84.9%; to `O=C(CN1CCC(c2ccc(F)cc2)CC1)N1CCOCC1` [CBK283683], 88.4%.
Regarding `O=C1CC2(CCN(C(=O)C3CCCC3)CC2)Oc2ccc(F)cc21` [CBK283686], the viability at 28.5 h, 10 µM came to 80.2%.
The same measure for `Cc1oc(C2CC2)cc1C(=O)N1CCn2c(nnc2C2CC2)C1` [CBK283687]: 94.9%; for `O=C(c1cccnc1)C1CCN(C(=O)Cc2ccccc2Cl)CC1` [CBK283690]: 90.3%.
The same measure for `O=c1oc(-c2ccncc2)nn1Cc1ccccc1F` [CBK283692]: 89.1%; for `Cc1ccc(CNc2c(-c3ccco3)nc3cnccn23)cc1` [CBK283693]: 89.3%.
In the case of `Fc1ccc(CNc2c(-c3ccco3)nc3cnccn23)cc1` [CBK283694], the viability at 28.5 h, 10 µM is 92%.
The same measure for `CC(C)n1c(=O)n(CC(=O)N(C)C2CCCCC2)c2cccnc21` [CBK283695]: 95.6%; for `CC(C)n1c(=O)n(CC(=O)NC2CCCCC2)c2cccnc21` [CBK283696]: 99%; for `CC1CCCCC1NC(=O)Cn1c(=O)n(C(C)C)c2ncccc21` (stereo not shown) [CBK283697]: 88.8%.
Consider `CC(C)n1c(=O)n(CC(=O)NCc2cccs2)c2cccnc21` [CBK283699], for which the viability at 28.5 h, 10 µM came out at 88.6%.
To `CC(C)n1c(=O)n(CC(=O)NC2CCCC2)c2cccnc21` [CBK283700] belongs 89.2%; to `O=C(Cn1ncc2cccn2c1=O)Nc1cccc(F)c1` [CBK283702], 89.8%; to `O=C(NCCn1nc(-c2ccco2)ccc1=O)c1cccs1` [CBK283704], 92.5%.
Regarding `O=C(NCCn1nc(-c2ccco2)ccc1=O)C1CCCC1` [CBK283707], the viability at 28.5 h, 10 µM turned out to be 92%.
As for `COc1ccc([C@@H]2CCN(C(=O)Cc3ccc(F)cc3)C[C@H]2O)cc1` [CBK283709], the viability at 28.5 h, 10 µM turned out to be 88.8%.
The same measure for `O=C(CCn1cnc2ccccc21)N1CC[C@@H](c2ccccc2)[C@H](O)C1` [CBK283712]: 102%.
To `O=C(Cc1ccc(F)cc1)N1CC[C@@H](c2ccccc2)[C@H](O)C1` [CBK283714] belongs 84.5%; to `O=C(c1cc(F)cc(F)c1)N1CC[C@@H](c2ccccc2)[C@H](O)C1` [CBK283715], 79.1%.
The same measure for `O=C(c1cccc2ncccc12)N1CC[C@@H](c2ccccc2)[C@H](O)C1` [CBK283716]: 84.3%; for `O=C(c1csc2c1CCCC2)N1CCc2c(nc[nH]c2=O)C1` [CBK283717]: 77.7%; for `CCn1cc(C(=O)N2C[C@H](C(=O)OC)[C@@H](c3ccc(F)cc3)C2)cn1` [CBK283719]: 89.7%.
With `COC(=O)[C@H]1CN(C(=O)c2cnn(C)c2C)C[C@@H]1c1ccc(F)cc1` [CBK283721], the viability at 28.5 h, 10 µM was 84.5%.
As to `O=C(O)[C@H]1CN(C(=O)CCc2ccco2)C[C@@H]1c1ccc(F)cc1` [CBK283722], the viability at 28.5 h, 10 µM turned out to be 86.5%.
With `Cn1ccnc1C(NC(=O)Cc1ccc(O)cc1)c1ccccc1` (stereo not shown) [CBK283723], the viability at 28.5 h, 10 µM came out at 87.9%.
The same measure for `Cc1nc2c(-c3cccs3)c(C)nn2c(O)c1C` [CBK283728]: 99.9%.
To `CCc1cc(O)n2nc(C)c(-c3cccs3)c2n1` [CBK283730] belongs 99.3%.
For `COC(=O)[C@H]1CN(C(=O)c2cccs2)C[C@@H]1c1ccc(F)cc1` [CBK283732], the viability at 28.5 h, 10 µM is 92%.
For the molecule `O=C(NCCn1nc(-c2ccco2)ccc1=O)c1ccccc1F` [CBK283742], the viability at 28.5 h, 10 µM is 92.5%.
To `COC(=O)c1ccc(/C=C/C2=CCN(C)CC2)cc1` [CBK283744] belongs 94.5%.
The same measure for `O=C(c1cccnc1)C1CCN(C(=O)c2cc(F)cc(F)c2)CC1` [CBK283746]: 102%; for `COc1cccc(C2(NC(=O)CCn3nc(C)cc3C)CCCC2)c1` [CBK283749]: 90.7%; for `Cc1nc2c(c(=O)[nH]1)CCN(C(=O)c1cc3c(s1)CCC3)C2` [CBK283751]: 105%.
Regarding `Cc1nc2c(c(=O)[nH]1)CCN(C(=O)c1oc3ccccc3c1C)C2` [CBK283752], the viability at 28.5 h, 10 µM turned out to be 111%.
On to `Cc1nc2c(c(=O)[nH]1)CCN(C(=O)c1cc(C3CC3)oc1C)C2` [CBK283753], for which the viability at 28.5 h, 10 µM amounted to 92.5%.
Consider `Cc1ccc(C2(C(=O)N3CCC(O)(c4ccccn4)CC3)CC2)cc1` [CBK283754], for which the viability at 28.5 h, 10 µM stood at 96.4%.
As to `O=C(Cc1ccc(F)cc1Cl)N1CCC(O)(c2ccccn2)CC1` [CBK283755], the viability at 28.5 h, 10 µM came out at 98.1%.
To `COc1ccc([C@@H]2CCN(C(=O)c3cc(F)cc(F)c3)C[C@H]2O)cc1` [CBK283757] belongs 97%; to `CC(C)n1c(=O)n(CC(=O)NCc2ccccc2)c2cccnc21` [CBK283758], 99.8%; to `O=C(NC1CC2(CCCCC2)Oc2ccccc21)C1CCOC1` (stereo not shown) [CBK283760], 105%.
On to `O=C(c1cncc(O)c1)N1C2CCC1CC(c1ccc(F)cc1)C2` (stereo not shown) [CBK283764], for which the viability at 28.5 h, 10 µM was determined as 96.4%.
On to `O=C(CCc1ccco1)N1CCCC1c1nc2ccccc2[nH]1` (stereo not shown) [CBK283767], for which the viability at 28.5 h, 10 µM turned out to be 104%.
The same measure for `Cc1cc(C(C)(C)C)oc1C(=O)N1CCn2c(nnc2C2CC2)C1` [CBK283771]: 93.9%.
With `O=C(c1cc(F)cc(F)c1)N1CCn2c(nnc2C2CC2)C1` [CBK283772], the viability at 28.5 h, 10 µM came to 95.9%.
Regarding `O=C(Cc1ccc(F)cc1Cl)N1CCn2c(nnc2C2CC2)C1` [CBK283773], the viability at 28.5 h, 10 µM is 87.8%.
To `CCn1cc(C(=O)N2CCCC2c2nc3ccccc3[nH]2)cn1` (stereo not shown) [CBK283776] belongs 109%; to `Cn1ccnc1C(NC(=O)N1CCOCC1)c1ccc(F)c(F)c1` (stereo not shown) [CBK283781], 87.4%.
To `Cn1ccnc1C(NC(=O)c1ccccn1)c1ccc(F)c(F)c1` (stereo not shown) [CBK283783] belongs 91.6%.
To `CCn1c(=O)n(CC(=O)N(C)C2CCCCC2)c2cccnc21` [CBK283786] belongs 86.3%; to `Cc1ccc(C(C)C(=O)N2CCC(O)(c3ccccn3)CC2)cc1` (stereo not shown) [CBK283787], 86.7%; to `COC(=O)[C@H]1CN(C(=O)c2cccnc2)C[C@@H]1c1ccc(F)cc1` [CBK283788], 92.1%.
For the molecule `O=C(c1ccccc1-c1ccccc1)N1CCn2cnnc2C1` [CBK283789], the viability at 28.5 h, 10 µM stood at 85.2%.
The same measure for `Cn1c(=O)n(CC(=O)N2CCc3ccccc32)c2cccnc21` [CBK283792]: 106%.
On to `CC1Cc2ccccc2N1C(=O)Cn1c(=O)n(C)c2ncccc21` (stereo not shown) [CBK283793], for which the viability at 28.5 h, 10 µM was determined as 90.7%.
For `CN1CC=C(/C=C/c2ccc(Sc3ncccn3)o2)CC1` [CBK283797], the viability at 28.5 h, 10 µM amounted to 82.3%.
As to `COc1ccc2cc(C(=O)N3CCC(c4ccncc4)CC3)[nH]c2c1` [CBK283799], the viability at 28.5 h, 10 µM came out at 86.4%.
The same measure for `CC(C)NC(=O)Cn1nc(-c2cc3c(s2)CCC3)oc1=O` [CBK283801]: 88.3%; for `CCN(CC)C(=O)NC(c1ccccc1OC)c1nccn1C` (stereo not shown) [CBK283803]: 80.8%.
To `CC1CC(C)CN(C(=O)Cn2ncc3cccn3c2=O)C1` (stereo not shown) [CBK283805] belongs 81.2%.
To `Cn1ccnc1C(NC(=O)c1cccnc1)c1ccc(F)c(F)c1` (stereo not shown) [CBK283807] belongs 100%.
As for `Cn1ccnc1C(NC(=O)c1ccncc1)c1ccc(F)c(F)c1` (stereo not shown) [CBK283808], the viability at 28.5 h, 10 µM was 104%.
The same measure for `Cc1ncccc1C(=O)NC(c1ccc(F)c(F)c1)c1nccn1C` (stereo not shown) [CBK283809]: 90.8%; for `CCn1c(=O)n(CC(=O)NCc2cccs2)c2cccnc21` [CBK283811]: 88.3%.
The same measure for `O=C(c1cccnc1)C1CCN(C(=O)C2CCCCC2)CC1` [CBK283817]: 90%.
To `Cc1ccc2cc(C)c3nn(CC(=O)NC4CC4)c(=O)n3c2c1C` [CBK283822] belongs 83.8%; to `CCn1nc2c(C)cc3cc(OC)ccc3n2c1=O` [CBK283823], 74.6%.
For the molecule `CCn1c(=O)n(CC(=O)N2CCc3ccccc32)c2cccnc21` [CBK283826], the viability at 28.5 h, 10 µM came to 89.4%.
With `CC(NC(=O)Cc1cccs1)c1nc2cccnc2n1C(C)C` (stereo not shown) [CBK283828], the viability at 28.5 h, 10 µM amounted to 81%.
The same measure for `CC(NC(=O)Cc1ccccc1F)c1nc2cccnc2n1C(C)C` (stereo not shown) [CBK283829]: 90.8%.
Take `CC(NC(=O)Cc1cccc(F)c1)c1nc2cccnc2n1C(C)C` (stereo not shown) [CBK283831]: the viability at 28.5 h, 10 µM came out at 98.5%.
With `COc1ccccc1C(NC(=O)N(C(C)C)C(C)C)c1nccn1C` (stereo not shown) [CBK283834], the viability at 28.5 h, 10 µM was found to be 81.9%.
On to `O=C(NCCn1nc(-c2cccs2)ccc1=O)c1ccccc1F` [CBK283835], for which the viability at 28.5 h, 10 µM is 86.1%.
Take `O=C(NCCn1nc(-c2cccs2)ccc1=O)C1CCCCC1` [CBK283837]: the viability at 28.5 h, 10 µM was found to be 90.7%.
The same measure for `O=C(NCCn1nc(-c2cccs2)ccc1=O)c1ccco1` [CBK283838]: 90.1%.
As for `O=C(CC1CCCC1)NCCn1nc(-c2cccs2)ccc1=O` [CBK283841], the viability at 28.5 h, 10 µM came to 91.8%.
